Source: publication PMC4820820, “CETSA screening identifies known and novel thymidylate synthase inhibitors and slow intracellular activation of 5-fluorouracil” (Nature Communications, 2016)

What follows are compounds tested against T1, human thymidylate synthase (TS) (Homo sapiens, UniProt P04818) (assay: CETSA primary screen / single-concentration retest, AlphaScreen, live K562 cells). Settings: 50 μM compound, 2 h preincubation, 50 °C; 0% = DMSO, 100% = 100 nM raltitrexed.
T1 construct: screening in live, non-engineered cells expressing thymidylate synthase; endogenous in cells; host or cells: K562 (human myelogenous leukemia) cells
T1 sequence (P04818 2-313 limits assumed): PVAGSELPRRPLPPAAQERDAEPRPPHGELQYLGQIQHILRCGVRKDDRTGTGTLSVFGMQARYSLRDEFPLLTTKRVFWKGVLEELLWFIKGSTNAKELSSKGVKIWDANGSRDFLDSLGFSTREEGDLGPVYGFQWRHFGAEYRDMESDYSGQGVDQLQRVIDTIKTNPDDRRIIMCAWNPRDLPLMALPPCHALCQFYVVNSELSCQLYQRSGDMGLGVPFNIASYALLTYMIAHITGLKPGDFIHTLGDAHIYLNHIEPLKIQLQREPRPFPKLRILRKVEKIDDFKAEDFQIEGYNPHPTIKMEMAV
Assay type: cell-based
Protocol: Compounds were placed in columns 1–22. […] At the day of the experiment the plates were allowed to thaw for 30 min followed by a brief centrifugation step (1,000 × g for 1 min) prior to removal of the seal. The compounds were then diluted with 20 μl supplemented cell culture medium using a Multidrop Combi reagent dispenser (Thermo Scientific). Finally 5 μl of the diluted compounds were transferred to a 384 well hardshell PCR plate (HSR480, BIORAD) using a Bravo liquid handling platform equipped with a 384-well head (Agilent). […] The final concentration of DMSO in the assay was 0.5% in all samples.
The screen procedure started with the addition of 5 μl of a suspension of K562 cells at a density of 10 million cells per ml to all wells of a 384 well hardshell PCR plate (HSR480, BIORAD) using an electronic multichannel pipette (Biohit). […] For the time-course experiments the incubation times were altered to include also 10 min, 30 min and 6 h. […] After the incubation step the plates were transiently heated at 50 °C for 3 min followed by a controlled cooling to 20 °C for 1 min using a real-time PCR machine (LightCycler480 system, Roche). Plate handling was then as described above for the thermal aggregation experiments. The data were analyzed using microsoft excel and GraphPad Prism 6.
A calculation of the average and standard error of means for each set of controls also allowed an illustration of how these responses varied over the 32 screening plates. The Z′ factor[38] is commonly used as a measure of how well the assay separates between the controls and this was calculated as described based on the calculated averages and standard deviations of the controls on a per plate basis. For the Tagg shift and the […] experiments the data were analyzed in GraphPad Prism using the Boltzmann sigmoid equation and the saturation binding curve (rectangular hyperbola; binding isotherm) function, respectively. As already discussed[14] these methods make use of equilibrium models for data analysis although the methodology depends on the irreversible aggregation of denatured material. For this reason we refer to the observed responses as apparent and isothermal dose-response fingerprints and are careful with any quantitative interpretations, being well aware of their dependency on experimental conditions. Experiments are on-going to address the quantitative interpretation of CETSA data.

Structure (SMILES)	% stabilization in screen [%]
Cc1cn(C2CC(O)C(CO)O2)c(=O)[nH]c1=O (stereo not drawn) [CBK011998]	-1
C[CH2][Hg][S]c1ccccc1C(=O)[O-].[Na+] [CBK200591N, Thimerosal, reference compound]	115
COC1C(O)C(CO)OC1n1cc(F)c(=S)[nH]c1=O (stereo not drawn) [CBK201168]	2
O=C(O)/C=C/c1cn([C@H]2C[C@@H](O)[C@@H](CO)O2)c(=O)[nH]c1=O [CBK201174]	17
C#Cc1cn([C@@H]2O[C@H](CO)[C@H](O)C2O)c(=O)[nH]c1=O (stereo partly drawn) [CBK201179]	20
O=c1[nH]c(=O)n([C@@H]2O[C@H](CO)[C@H](O)C2O)cc1Br (stereo partly drawn) [CBK201180]	-1
O=C(/C=C/c1cn([C@H]2C[C@@H](O)[C@@H](CO)O2)c(=O)[nH]c1=O)ON1C(=O)CCC1=O [CBK201188]	16
O=c1ncccn1[C@@H]1O[C@H](CO)[C@H](O)C1O (stereo partly drawn) [CBK201195]	22
Cc1cn([C@H]2C[C@@H](O)[C@@H](CI)O2)c(=O)[nH]c1=O [CBK201197]	-1
Cc1cn(C2CC(O)C(CNC(=O)C(F)(F)F)O2)c(=O)[nH]c1=O (stereo not drawn) [CBK201200]	0
O=C(/C=C/c1cn(C2CC(O)C(CO)O2)c(=O)[nH]c1=O)NCCNC(=O)C(F)(F)F (stereo not drawn) [CBK201214]	9
Nc1nc(=O)n([C@H]2C[C@@H](O)[C@@H](CO)O2)cc1I [CBK201226]	7
O=C(/C=C/c1cn(C2OC(CO)C(O)C2O)c(=O)[nH]c1=O)NCCCCCCNC(=O)C(F)(F)F (stereo not drawn) [CBK201231]	-1
Cc1cn(C2CC(O)C(C3N(c4ccccc4)CCN3c3ccccc3)O2)c(=O)[nH]c1=O (stereo not drawn) [CBK201232]	-1
O=c1nc2c(cn1[C@H]1C[C@@H](O)[C@@H](CO)O1)Sc1ccccc1N2 [CBK201237]	9
O=c1[nH]c(=O)n([C@H]2C[C@@H](O)[C@@H](CO)O2)cc1CCO [CBK201239]	17
O=C(NC/C=C/c1cn(C2CC(O)C(CO)O2)c(=O)[nH]c1=O)C(F)(F)F (stereo not drawn) [CBK201249]	17
COC1C(O)C(CO)OC1n1cc(C)c(=O)[nH]c1=O (stereo not drawn) [CBK201251]	-1
COC1C(O)C(CO)OC1n1cc(F)c(=O)[nH]c1=O (stereo not drawn) [CBK201253]	61
Nc1cccc(-c2cn([C@H]3C[C@@H](O)[C@@H](CO)O3)c(=O)[nH]c2=O)c1 [CBK201262]	16

Structure (SMILES)	% stabilization in screen [%]
Cc1cn([C@@H]2O[C@H](CO)[C@H](O)C2O)c(=O)[nH]c1=O (stereo partly drawn) [CBK201265]	17
O=C(O)/C=C/c1cn([C@@H]2O[C@H](CO)[C@H](O)C2O)c(=O)[nH]c1=O (stereo partly drawn) [CBK201270]	-1
Nc1ccn([C@H]2C[C@@H](O)[C@@H](CO)O2)c(=O)n1 [CBK201274]	-1
C#CCOc1cn([C@H]2C[C@@H](O)[C@@H](CO)O2)c(=O)[nH]c1=O [CBK201278]	7
COC1C(O)C(CO)OC1n1cc(F)c(Oc2c(C)cc(C)cc2C)nc1=O (stereo not drawn) [CBK201279]	0
Cc1cn2c(nc1=O)OC[C@H]1O[C@@H]2C[C@H]1O [CBK201280]	0
Cn1c(=O)ccn([C@@H]2O[C@H](CO)[C@H](O)C2O)c1=O (stereo partly drawn) [CBK201281]	-1
Cc1ccc(S(=O)(=O)OC[C@H]2O[C@@H](n3ccc(=O)[nH]c3=O)C[C@H]2O)cc1 [CBK201283]	-2
Cc1cc2cn([C@H]3C[C@@H](O)[C@@H](CO)O3)c(=O)nc2o1 [CBK201287]	20
O=C(NC/C=C/c1cn(C2OC(CO)C(O)C2O)c(=O)[nH]c1=O)C(F)(F)F (stereo not drawn) [CBK201298]	-1
Cc1cc2cn([C@H]3C[C@@H](O)[C@@H](CO)O3)c(=O)nc2[nH]1 [CBK201302]	21
O=c1[nH]c(=O)n([C@@H]2O[C@H](CO)[C@H](O)C2O)cc1I (stereo partly drawn) [CBK201304]	-1
Nc1nc(=O)n([C@@H]2O[C@H](CO)[C@H](O)C2O)cc1I (stereo partly drawn) [CBK201306]	-1
Cc1cn([C@H]2C[C@@H](O)[C@@H](CO)O2)c(=O)nc1N.Cl [CBK201307]	4
O=C(/C=C/c1cn(C2CC(O)C(CO)O2)c(=O)[nH]c1=O)NCCCCCCNC(=O)C(F)(F)F (stereo not drawn) [CBK201310]	15
Cc1cn([C@H]2C[C@@H](O)[C@@H](CN)O2)c(=O)[nH]c1=O [CBK201315]	-1
O=c1ccn([C@H]2C[C@@H](O)[C@@H](CO)O2)c(=O)[nH]1 [CBK201316]	-1
O=c1[nH]c(=O)n([C@H]2C[C@@H](O)[C@@H](CO)O2)cc1O [CBK201317]	16
Cc1cn([C@H]2C[C@@H](O)[C@@H](CO)O2)c(=O)n(CCC#N)c1=O [CBK201322]	-1

Same assay, conditions: 6 h preincubation, K562 cells

Structure (SMILES)	% stabilization at retest (6h preincubation) [%]
COC1C(O)C(CO)OC1n1cc(F)c(=S)[nH]c1=O (stereo not drawn) [CBK201168]	5
C#CCOc1cn([C@H]2C[C@@H](O)[C@@H](CO)O2)c(=O)[nH]c1=O [CBK201278]	12

Same assay, conditions: K562, 2 h, 50 μM compound, 2 h preincubation, 50 °C; 0% = DMSO, 100% = 100 nM raltitrexed; read-out: % stabilization in screen

Structure (SMILES)	% stabilization in screen at 50 µM [%]
c1cnc(N2CCN(Cc3ccc4c(c3)OCO4)CC2)nc1 [CBK041124C, Piribedil, reference compound]	17
Clc1ccc(C(Cn2ccnc2)OCc2csc3c(Cl)cccc23)c(Cl)c1 (stereo not drawn) [CBK200917G, Sertaconazole nitrate, reference compound]	66
CC(=O)OCC(=O)[C@@]12OC3(CCCC3)O[C@@H]1C[C@H]1[C@@H]3CCC4=CC(=O)C=C[C@]4(C)[C@@]3(F)[C@@H](O)C[C@@]12C [CBK200950, Amcinonid, reference compound]	56
CN1CCN(c2c(F)cc3c(=O)c(C(=O)O)cn(CCF)c3c2F)CC1 [CBK201030, Fleroxacin, reference compound]	66

Same assay, conditions: K562, 2 h; read-out: % stabilization in screen

Structure (SMILES)	% stabilization in screen at 50 µM [%]
Nc1nc(N)c2nc(-c3ccccc3)c(N)nc2n1 [CBK012158, Triamterene, reference compound]	78
CC(C)NCC(O)c1ccc(NS(C)(=O)=O)cc1 (stereo not drawn) [CBK012353C, Sotalol, reference compound]	14
Nc1ncnc2c1nc(Br)n2[C@@H]1O[C@H](CO)[C@@H](O)[C@H]1O [CBK015742, 8-bromoadenosine]	20
COc1ccccc1N1CCN(CC(O)COc2cccc3ccccc23)CC1 (stereo not drawn) [CBK041301C, Naftopidil, reference compound]	59
Cc1ccc(-c2cc(C(F)(F)F)nn2-c2ccc(S(N)(=O)=O)cc2)cc1 [CBK041793, Celecoxib, reference compound]	61
Nc1ncn([C@@H]2O[C@H](CO)[C@@H](O)[C@H]2O)c(=O)n1 [CBK200768, 5-Azacytidine, reference compound]	32
Cc1ccc2c(c1)c1c3n2CCNC3CCC1 (stereo not drawn) [CBK200931G, Pirlindole, reference compound]	23
Nc1ccn([C@@H]2O[C@H](CO)[C@@H](O)C2(F)F)c(=O)n1 [CBK200978, gemcitabine, reference compound]	0
C=CCOc1nc2c(=O)[nH]c(NC(=O)C(C)C)nc2n1[C@H]1C[C@H](O)[C@@H](CO)O1 [CBK201216, 8-allyloxy-N2-isobutyryl-2′-deoxyguanosine]	30
